Laboratory results: patent US7728012B2, “Carboxamide compounds and their use as calpain inhibitors” (Abbott GmbH & Co. KG, priority 2006, dated 2010)

Key:
Type in all cases: biochemical
[1] = biological target: T1, cathepsin K activated from recombinant human procathepsin K (Homo sapiens, UniProt P43235); assay: Cathepsin K kinetic fluorescence enzyme inhibition assay; details: selectivity ratio versus calpain I
T1 construct: purchased Calbiochem 342001; host or cells: E. coli
T1 sequence (P43235 115-329): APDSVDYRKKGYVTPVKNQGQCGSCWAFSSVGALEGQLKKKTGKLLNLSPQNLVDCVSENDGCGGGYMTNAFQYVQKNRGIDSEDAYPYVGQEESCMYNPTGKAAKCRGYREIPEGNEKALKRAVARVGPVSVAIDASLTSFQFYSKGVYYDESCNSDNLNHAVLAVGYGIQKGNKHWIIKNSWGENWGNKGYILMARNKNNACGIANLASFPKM

[2] = biological target: T2, cathepsin L isolated from human liver (Homo sapiens, UniProt P07711); assay: Cathepsin L kinetic fluorescence enzyme inhibition assay; details: selectivity ratio versus calpain I
T2 construct: cathepsin L—isolated from human liver; purchased Calbiochem 219402; host or cells: human liver (tissue isolate)
How it was run: (§1)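 cat B 0.25 nM + Z-Phe-Arg-AMC 100 μM; cat L 1 nM + Z-Phe-Arg-AMC 2 μM; cat S 0.5 nM (E. coli-expressed) + Z-Val-Val-Arg-AMC 20 μM. 50 mM MES pH 6.0, 2.5 mM L-Cys, RT. Ex 390/em 460, kinetic; Ki app = Cheng-Prusoff from IC50, mean of 2–4 curves.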

[3] = biological target: T3, calpain-I isolated from human erythrocytes (Homo sapiens, UniProt P07384); assay: Calpain I kinetic fluorescence enzyme inhibition assay; details: apparent Ki from IC50 by Cheng-Prussoff; average of 2 to 4 dose-effect plots
T3 construct: calpain-I—isolated from human erythrocytes; purchased Calbiochem 208713; host or cells: human erythrocytes (tissue isolate)
T3 sequence (P07384 1-714): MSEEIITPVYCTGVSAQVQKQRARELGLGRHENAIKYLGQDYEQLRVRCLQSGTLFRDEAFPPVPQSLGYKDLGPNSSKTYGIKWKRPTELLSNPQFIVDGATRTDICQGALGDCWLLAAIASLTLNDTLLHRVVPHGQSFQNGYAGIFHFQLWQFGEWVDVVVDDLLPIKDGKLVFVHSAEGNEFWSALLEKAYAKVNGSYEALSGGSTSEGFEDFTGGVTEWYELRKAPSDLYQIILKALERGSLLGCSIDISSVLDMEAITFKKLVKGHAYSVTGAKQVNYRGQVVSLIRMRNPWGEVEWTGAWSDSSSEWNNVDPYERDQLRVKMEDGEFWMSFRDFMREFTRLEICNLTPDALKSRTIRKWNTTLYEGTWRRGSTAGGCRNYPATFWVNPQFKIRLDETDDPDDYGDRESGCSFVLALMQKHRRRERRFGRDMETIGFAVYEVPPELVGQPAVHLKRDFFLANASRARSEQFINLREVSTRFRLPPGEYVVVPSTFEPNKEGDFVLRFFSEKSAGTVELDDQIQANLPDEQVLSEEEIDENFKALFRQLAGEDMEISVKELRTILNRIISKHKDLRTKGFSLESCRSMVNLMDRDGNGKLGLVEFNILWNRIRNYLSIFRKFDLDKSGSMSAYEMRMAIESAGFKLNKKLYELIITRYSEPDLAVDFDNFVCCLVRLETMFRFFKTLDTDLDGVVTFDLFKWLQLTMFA
T3 sequence (P04632 1-268 partner): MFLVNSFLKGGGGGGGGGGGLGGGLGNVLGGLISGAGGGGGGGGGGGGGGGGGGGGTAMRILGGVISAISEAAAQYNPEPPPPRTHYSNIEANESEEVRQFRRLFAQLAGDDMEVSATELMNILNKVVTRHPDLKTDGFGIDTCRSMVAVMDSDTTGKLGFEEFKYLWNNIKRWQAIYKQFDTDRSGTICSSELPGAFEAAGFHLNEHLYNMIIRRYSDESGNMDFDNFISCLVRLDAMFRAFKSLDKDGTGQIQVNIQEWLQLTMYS

[4] = biological target: T4, cathepsin B isolated from human liver (Homo sapiens, UniProt P07858); assay: Cathepsin B kinetic fluorescence enzyme inhibition assay; details: selectivity ratio versus calpain I
T4 construct: cathepsin B—isolated from human liver; purchased Calbiochem 219362; host or cells: human liver (tissue isolate)
How it was run: as §1

[5] = biological target: T5, recombinant human cathepsin S (Homo sapiens, UniProt P25774); assay: Cathepsin S kinetic fluorescence enzyme inhibition assay; details: selectivity ratio versus calpain I
T5 construct: purchased Calbiochem 219343; host or cells: E. coli
How it was run: as §1

T5 sequence (P25774 115-331): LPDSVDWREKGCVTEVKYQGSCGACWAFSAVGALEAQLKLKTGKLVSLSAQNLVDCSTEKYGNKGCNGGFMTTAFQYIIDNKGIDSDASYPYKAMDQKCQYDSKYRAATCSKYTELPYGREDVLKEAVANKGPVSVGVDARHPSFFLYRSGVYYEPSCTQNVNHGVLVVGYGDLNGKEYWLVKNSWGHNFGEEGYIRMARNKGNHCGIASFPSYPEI
T2 sequence (P07711 114-333): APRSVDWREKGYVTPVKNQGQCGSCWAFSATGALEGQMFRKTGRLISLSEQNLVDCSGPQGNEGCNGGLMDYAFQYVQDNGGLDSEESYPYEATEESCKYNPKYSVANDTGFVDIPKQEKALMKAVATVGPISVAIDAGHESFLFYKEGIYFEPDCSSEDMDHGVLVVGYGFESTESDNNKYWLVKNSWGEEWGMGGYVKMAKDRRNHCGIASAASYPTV

Compound | Sel cat. K (Ki(cathepsin K)/Ki(calpain) ratio) [1] | Sel cat. L (Ki(cathepsin L)/Ki(calpain) ratio) [2] | Ki [3] [nM] | Sel cat. B (Ki(cathepsin B)/Ki(calpain) ratio) [4] | Sel cat. S (Ki(cathepsin S)/Ki(calpain) ratio) [5]
NC(=O)C(=O)C(Cc1ccccc1)NC(=O)c1cccnc1-n1ccc(-c2c(F)cc(F)cc2F)n1 (centres unmarked) [Example 116, N-[3-Amino-2,3-dioxo-1-(phenylmethyl)propyl]-2-[3-(2,4,6-trifluorophenyl)-1H-pyrazol-1-yl]pyridine-3-carboxamide] | + (10≦Ki(cathepsin K)/Ki(calpain)<30) | ++ (Ki(cathepsin L)/Ki(calpain) ratio of ≧50) | ≤ 40 | ++ (Ki(cathepsin B)/Ki(calpain) ratio of ≧30) | ++ (Ki(cathepsin S)/Ki(calpain) ratio of ≧100)
NC(=O)C(=O)C(Cc1ccccc1)NC(=O)c1cccnc1-n1ccc(-c2cc(F)cc(F)c2)n1 (centres unmarked) [Example 91, N-[3-Amino-2,3-dioxo-1-(phenylmethyl)propyl]-2-[3-(3,5-difluorophenyl)-1H-pyrazol-1-yl]pyridine-3-carboxamide] | + (10≦Ki(cathepsin K)/Ki(calpain)<30) | ++ (Ki(cathepsin L)/Ki(calpain) ratio of ≧50) | ≤ 40 | ++ (Ki(cathepsin B)/Ki(calpain) ratio of ≧30) | ++ (Ki(cathepsin S)/Ki(calpain) ratio of ≧100)
NC(=O)C(=O)C(Cc1ccccc1)NC(=O)c1cccnc1-n1ccc(-c2cccc(OC(F)(F)F)c2)n1 (centres unmarked) [Example 168, N-[3-Amino-2,3-dioxo-1-(phenylmethyl)propyl]-2-(3-{3-[(trifluoromethyl)oxy]phenyl}-1H-pyrazol-1-yl)pyridine-3-carboxamide] | + (10≦Ki(cathepsin K)/Ki(calpain)<30) | ++ (Ki(cathepsin L)/Ki(calpain) ratio of ≧50) | ≤ 40 | + (10≦Ki(cathepsin B)/Ki(calpain)<30) | ++ (Ki(cathepsin S)/Ki(calpain) ratio of ≧100)
NC(=O)C(=O)C(Cc1ccccc1)NC(=O)c1cccnc1-n1ccc(-c2ccc(N3CCOCC3)cc2F)n1 (centres unmarked) [Example 102, N-[3-Amino-2,3-dioxo-1-(phenylmethyl)propyl]-2-[3-(2-fluoro-4-morpholin-4-ylphenyl)-1H-pyrazol-1-yl]pyridine-3-carboxamide] | ++ (Ki(cathepsin K)/Ki(calpain) ratio of ≧30) | ++ (Ki(cathepsin L)/Ki(calpain) ratio of ≧50) | ≤ 40 | + (10≦Ki(cathepsin B)/Ki(calpain)<30) | ++ (Ki(cathepsin S)/Ki(calpain) ratio of ≧100)
NC(=O)C(=O)C(Cc1ccccc1)NC(=O)c1cccnc1-n1ccc(-c2cccc(Cl)c2)n1 (centres unmarked) [Example 70, N-(3-Amino-1-benzyl-2,3-dioxopropyl)-2-[3-(3-chlorophenyl)-1H-pyrazol-1-yl]nicotinamide] | + (10≦Ki(cathepsin K)/Ki(calpain)<30) | ++ (Ki(cathepsin L)/Ki(calpain) ratio of ≧50) | ≤ 40 | + (10≦Ki(cathepsin B)/Ki(calpain)<30) | ++ (Ki(cathepsin S)/Ki(calpain) ratio of ≧100)
NC(=O)C(=O)C(Cc1ccccc1)NC(=O)c1cccnc1-n1ccc(-c2ccccn2)n1 (centres unmarked) [Example 35, N-(3-Amino-1-benzyl-2,3-dioxopropyl)-2-(3-pyridin-2-yl-1H-pyrazol-1-yl)nicotinamide] | + (10≦Ki(cathepsin K)/Ki(calpain)<30) | ++ (Ki(cathepsin L)/Ki(calpain) ratio of ≧50) | 40 to 100 | + (10≦Ki(cathepsin B)/Ki(calpain)<30) | ++ (Ki(cathepsin S)/Ki(calpain) ratio of ≧100)
NC(=O)C(=O)C(Cc1ccccc1)NC(=O)c1cccnc1-n1ccc(-c2cccc(Cl)c2Cl)n1 (centres unmarked) [Example 115, N-[3-Amino-2,3-dioxo-1-(phenylmethyl)propyl]-2-[3-(2,3-dichlorophenyl)-1H-pyrazol-1-yl]pyridine-3-carboxamide] | ++ (Ki(cathepsin K)/Ki(calpain) ratio of ≧30) | ++ (Ki(cathepsin L)/Ki(calpain) ratio of ≧50) | ≤ 40 | ++ (Ki(cathepsin B)/Ki(calpain) ratio of ≧30) | ++ (Ki(cathepsin S)/Ki(calpain) ratio of ≧100)
COc1ccc(CC(NC(=O)c2cccnc2-n2ccc(-c3ccc(F)cc3OC)n2)C(=O)C(N)=O)cc1 (centres unmarked) [Example 136, N-(3-Amino-1-{[4-(methyloxy)phenyl]methyl}-2,3-dioxopropyl)-2-{3-[4-fluoro-2-(methyloxy)phenyl]-1H-pyrazol-1-yl}pyridine-3-carboxamide] | ++ (Ki(cathepsin K)/Ki(calpain) ratio of ≧30) | ++ (Ki(cathepsin L)/Ki(calpain) ratio of ≧50) | ≤ 40 | ++ (Ki(cathepsin B)/Ki(calpain) ratio of ≧30) | ++ (Ki(cathepsin S)/Ki(calpain) ratio of ≧100)
NC(=O)C(=O)C(Cc1ccccc1)NC(=O)c1cccnc1-n1ccc(-c2ccccc2Cl)n1 (centres unmarked) [Example 54, N-(3-Amino-1-benzyl-2,3-dioxopropyl)-2-[3-(2-chlorophenyl)-1H-pyrazol-1-yl]nicotinamide] | ++ (Ki(cathepsin K)/Ki(calpain) ratio of ≧30) | ++ (Ki(cathepsin L)/Ki(calpain) ratio of ≧50) | 40 to 100 | ++ (Ki(cathepsin B)/Ki(calpain) ratio of ≧30) | ++ (Ki(cathepsin S)/Ki(calpain) ratio of ≧100)
NC(=O)C(=O)C(Cc1ccccc1)NC(=O)c1cccnc1-n1ccc(-c2ccc3c(c2)OC(F)(F)O3)n1 (centres unmarked) [Example 118, N-[3-Amino-2,3-dioxo-1-(phenylmethyl)propyl]-2-[3-(2,2-difluoro-1,3-benzodioxol-5-yl)-1H-pyrazol-1-yl]pyridine-3-carboxamide] | + (10≦Ki(cathepsin K)/Ki(calpain)<30) | ++ (Ki(cathepsin L)/Ki(calpain) ratio of ≧50) | ≤ 40 | ++ (Ki(cathepsin B)/Ki(calpain) ratio of ≧30) | ++ (Ki(cathepsin S)/Ki(calpain) ratio of ≧100)
